Test results from patent publication US5286729A, “Angiotensin II receptor blocking 2,3,6 substituted quinazolinones” (American Cyanamid Company, priority 1993, dated 1994).

Molecular target: T1, Angiotensin II Receptor (Bos taurus, UniProt P25104)
T1 construct: The brownish tissue forming the adrenal cortex is scraped off and finely minced with scissors before homogenization; from tissue; host or cells: beef adrenal cortex, microsomal (100,000 x g) membranes; adrenals from a local slaughter house (Maxwell-Cohen)
T1 sequence (P25104 1-359): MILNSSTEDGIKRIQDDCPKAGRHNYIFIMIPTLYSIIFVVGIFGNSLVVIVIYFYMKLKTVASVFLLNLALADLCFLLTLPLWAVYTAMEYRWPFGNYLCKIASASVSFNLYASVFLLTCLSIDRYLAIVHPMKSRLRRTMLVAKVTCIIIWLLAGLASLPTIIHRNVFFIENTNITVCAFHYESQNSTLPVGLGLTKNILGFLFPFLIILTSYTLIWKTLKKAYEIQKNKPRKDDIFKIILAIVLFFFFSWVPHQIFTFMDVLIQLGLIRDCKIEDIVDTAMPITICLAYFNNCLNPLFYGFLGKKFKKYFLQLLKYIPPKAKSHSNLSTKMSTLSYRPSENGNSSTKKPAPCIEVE
Assay: Receptor Binding Assay, binding of [125I](Sar1,Ile8)AngII to beef adrenal cortex membranes
Settings: beef adrenal membranes; [125I](Sar1,Ile8)AngII; 60 min, room temperature, pH 7.4
From the text: Beef adrenals are obtained from a local slaughter house (Maxwell-Cohen). [^125 I](Sar^1,Ile^8)AngII, S.A. 2200 Ci/mmole, is purchased from Dupont (NEN®, Boston, Mass.).
Approximately sixteen (16) to twenty (20) beef adrenal glands are processed as follows: fresh adrenal glands received on crushed ice are cleaned of fatty tissues and the tough membranes encapsulating the glands are removed and discarded. The brownish tissue forming the adrenal cortex is scraped off and finely minced with scissors before homogenization. Care is taken to avoid contamination with medullary tissue during dissection. The scraped cortices are suspended in twenty volumes of an ice-cold buffer medium consisting of 10 mM Tris.HCl (pH 7.4 at 22° C.) and containing 1.0 mM EDTA and 0.2M sucrose. Unless otherwise indicated, all subsequent operations are done at 4° C. […] The homogenate is centrifuged first at low speed (3,000×g) for 10 min. […] The pelleted membrane is reconstituted in 50.0 mM Tris.HCl buffer containing 0.1 mM of phenylmethylsulfonyl fluoride (PMSF) to give approximately a protein concentration of 2.5 mg per ml of tissue suspension. The membrane preparation is finally aliquoted in 1.0 ml volumes and stored at -70° C. until use in the binding assays. […]

IC50: 0.13 µM
SMILES: CCCCc1nc2ccc(COc3ccccn3)cc2c(=O)n1Cc1ccc(-c2ccccc2-c2nnn[nH]2)cc1.Cl [Example 12, 2-Butyl-6-[(2-pyridinyloxy)methyl]-3-[[2'-(1H-tetrazol-5-yl)[1,1'-biphenyl]-4-yl]methyl]-4(3H)-quinazolinone monohydrochloride]
